In test [1] the test system is E. coli BW25113 ΔtolC/ΔyacG. Put plainly: Broth microdilution MIC, E. coli BW25113 ΔtolC/ΔyacG. The test is classed as cell-based. As for the experimental part: (§1) Compound doubling dilutions were prepared in 100% DMSO (Sigma Aldrich) and 2 μL of each dilution was transferred to a 96-well plate with lid (Thermo Scientific). Inoculum for all MIC testing was prepared using the BBL Prompt Inoculation System (Becton Dickinson, Franklin Lakes, NJ USA) as described by the manufacturer to produce a suspension of cells at approximately 1.5 x 10^8 colony forming units (CFU)/mL [34–36] and a further dilution (1:1000) was made into cation adjusted Mueller-Hinton broth (CAMH broth, Becton-Dickinson). One hundred μL of this inoculum were then transferred to each well of the 96-well plate containing diluted compound (above). Plates were covered and incubated overnight (18 hrs.) at 37°C.
The yacG deletion allele from the Keio collection was amplified by PCR (primers: […] and […]) and moved to BW25113 ΔtolC as described below. The E. coli strain BW25113 ΔtolC containing pKD46 [25] was used to inoculate SOB (Invitrogen)/0.2% w/v arabinose (Sigma Aldrich)/ampicillin (100 μg/mL) and grown overnight at 30°C. The overnight culture was then diluted 1/40 into 20 mL fresh SOB/0.2% w/v arabinose/ampicillin (100 μg/mL) and grown at 30°C while shaking for ~3 hrs until OD600 = 0.5. Cells were pelleted by centrifugation at 4000 rpm for 10 min, washed with 40 mL ice cold sterile, distilled H2O, then 3 x 1 mL ice cold 10% glycerol followed by centrifugation at 5000 g for 3 minutes. The pellet was resuspended in 100 μL of 10% glycerol (1/200 of starting culture). For transformation, 5 μL of gel purified PCR product was added to 50 μL cells, mixed, and immediately electroporated in a 0.2 cm gap cuvette at 2.5kV, 25 μF, 200 Ω (BioRad, Hercules, CA USA). Electroporated cells were recovered in 1 mL SOC (Invitrogen)/0.2% arabinose at 37°C for 2 hours with shaking. Cells in amounts of 50 and 950 μL were then plated on LB agar supplemented with kanamycin (25 μg/mL) and incubated overnight at 37°C. Correct gene replacements were verified by PCR.
For orientation: Broth dilution looks for growth in wells or tubes with falling amounts of substance.

The subject of test [2] is E. coli BW25113 ΔtolC. Description: Broth microdilution MIC, E. coli BW25113 ΔtolC. The settings on record: Escherichia coli. The test is classed as cell-based.
Description: E. coli HS151 (ΔtolC) has been described previously. Gyrase inhibitor-resistant isolates (GYR101-108) were derived by selection for spontaneous resistance to MRL-770 or MRL-423 (Fig 1) in E. coli HS151 as described below. E. coli BW25113 and the Keio gene deletion collection based on BW25113 [25] were obtained from Thermo Fisher Scientific (Waltham, MA) and described in [26]. The plasmid-borne FQ resistance determinant, qnrVC3 [27], was kindly provided by D. Hooper (Massachusetts General Hospital). MB9796 (A. baumannii) is a derivative of MB9797 (ATCC19606) lacking lipopolysaccharide. The efflux-defective P. aeruginosa strain MB5890 (CB398) is a derivative of MB5919 (PAO1). MB2884 (E. coli) and CL15245 (K. pneumoniae) are clinical isolates from the Merck & Co., Inc., Kenilworth, NJ, USA, strain collection. S. aureus COL is a methicillin-resistant clinical isolate.
as §1
The yacG deletion allele from the Keio collection was amplified by PCR (primers: […] and […]) and moved to BW25113 ΔtolC as described below. The E. coli strain BW25113 ΔtolC containing pKD46 [25] was used to inoculate SOB (Invitrogen)/0.2% w/v arabinose (Sigma Aldrich)/ampicillin (100 μg/mL) and grown overnight at 30°C. The overnight culture was then diluted 1/40 into 20 mL fresh SOB/0.2% w/v arabinose/ampicillin (100 μg/mL) and grown at 30°C while shaking for ~3 hrs until OD600 = 0.5. […]

Test [3] concerns the target T1, E. coli DNA gyrase (Escherichia coli, UniProt P0AES6).
T1 construct: purchased New England Biolabs, Beverly, MA
Put plainly: Cleavage complex stabilization gel assay. The format is biochemical. As to conditions: supercoiled pUC19. As for the experimental part:
Cleavage complex stabilization was detected by assembling a gyrase reaction, as above, containing 0.4μL compound (in 100% DMSO), 12.5 μL H2O, 4 μL 5X buffer, 0.4 μL supercoiled pUC19 DNA substrate (0.4 μg), 3 μL gyrase (15 U). The reaction was incubated at 25°C for 60 min. after which 3 μL 2% SDS and 3 μL 1 mg/mL proteinase K were added. […] DNA in the gel was illuminated with UV light and photographed as above.

Test [4] deals with T2, P. aeruginosa DNA gyrase (Pseudomonas aeruginosa, UniProt Q9I7C2).
T2 construct: purchased Inspiralis, Norwich, UK
T2 sequence (Q9I7C2 whole entry): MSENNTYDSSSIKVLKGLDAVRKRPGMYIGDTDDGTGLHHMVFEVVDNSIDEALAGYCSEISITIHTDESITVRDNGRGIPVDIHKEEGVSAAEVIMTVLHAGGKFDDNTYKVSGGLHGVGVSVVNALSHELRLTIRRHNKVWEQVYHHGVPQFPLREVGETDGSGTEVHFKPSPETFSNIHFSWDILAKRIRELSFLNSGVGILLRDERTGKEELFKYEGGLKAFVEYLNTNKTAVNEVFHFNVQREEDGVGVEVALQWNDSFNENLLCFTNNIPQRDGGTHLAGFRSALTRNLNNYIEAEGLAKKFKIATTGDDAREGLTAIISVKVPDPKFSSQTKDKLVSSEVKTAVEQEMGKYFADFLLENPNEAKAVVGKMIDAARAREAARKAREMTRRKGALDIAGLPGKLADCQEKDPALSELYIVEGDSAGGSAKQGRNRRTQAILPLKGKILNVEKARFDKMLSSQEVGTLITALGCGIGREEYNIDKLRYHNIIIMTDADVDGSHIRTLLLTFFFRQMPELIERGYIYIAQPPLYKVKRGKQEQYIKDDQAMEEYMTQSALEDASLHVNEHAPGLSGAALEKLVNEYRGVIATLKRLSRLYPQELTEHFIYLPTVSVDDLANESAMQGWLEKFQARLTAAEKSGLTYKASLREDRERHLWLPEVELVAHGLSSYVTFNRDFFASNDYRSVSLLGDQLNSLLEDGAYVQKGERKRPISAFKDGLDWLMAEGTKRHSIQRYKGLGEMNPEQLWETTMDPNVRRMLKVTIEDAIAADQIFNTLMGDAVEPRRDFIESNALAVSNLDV
T2 sequence (P48372 whole entry, further chain): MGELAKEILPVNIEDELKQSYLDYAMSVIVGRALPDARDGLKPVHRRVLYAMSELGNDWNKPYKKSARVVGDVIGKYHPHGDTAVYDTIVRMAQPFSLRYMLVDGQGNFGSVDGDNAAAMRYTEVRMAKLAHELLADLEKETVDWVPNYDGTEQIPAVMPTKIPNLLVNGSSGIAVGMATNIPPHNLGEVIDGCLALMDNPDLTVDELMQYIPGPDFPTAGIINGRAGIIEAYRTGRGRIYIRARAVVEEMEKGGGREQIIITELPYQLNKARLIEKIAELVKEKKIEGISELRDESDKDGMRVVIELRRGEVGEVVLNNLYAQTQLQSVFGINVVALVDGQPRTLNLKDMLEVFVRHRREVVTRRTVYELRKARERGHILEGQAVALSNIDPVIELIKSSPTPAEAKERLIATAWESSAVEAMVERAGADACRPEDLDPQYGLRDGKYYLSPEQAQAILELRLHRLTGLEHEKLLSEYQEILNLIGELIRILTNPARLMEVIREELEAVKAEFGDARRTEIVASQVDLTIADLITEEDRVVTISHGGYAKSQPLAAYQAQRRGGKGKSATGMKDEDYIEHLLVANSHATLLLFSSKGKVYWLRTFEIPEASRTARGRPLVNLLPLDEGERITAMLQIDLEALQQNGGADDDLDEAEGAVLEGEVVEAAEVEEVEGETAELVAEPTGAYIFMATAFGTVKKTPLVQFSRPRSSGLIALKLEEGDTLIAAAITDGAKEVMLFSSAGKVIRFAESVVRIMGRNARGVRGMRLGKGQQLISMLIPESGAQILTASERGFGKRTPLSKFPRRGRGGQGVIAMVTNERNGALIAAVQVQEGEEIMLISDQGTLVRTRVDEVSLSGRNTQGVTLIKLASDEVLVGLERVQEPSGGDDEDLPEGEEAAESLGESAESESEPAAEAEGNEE
Description: Agarose gel DNA gyrase supercoiling assay, P. aeruginosa. The test is classed as biochemical. The settings on record: gel-based assay, Fig 3B. As for the experimental part:
Conditions to measure the supercoiling of a relaxed, closed-circular plasmid substrate and cleavage complex stabilization in agarose gels were adapted from the literature and carried out as described below. Plasmid supercoiling reactions were assembled by combining 0.4 μL compound (in 100% DMSO), 12.5 μL H2O, 4 μL 5Xbuffer, 0.4 μL relaxed pUC19 DNA substrate (0.5 μg), […] dilute DNA gyrase (buffer, substrate, and enzyme from New England Biolabs, Beverly, MA). Alternatively the substrate pHOT-1 (TopoGEN, Buena Vista, CO) was used as noted (the substrate from New England Biolabs has been discontinued). P. aeruginosa DNA gyrase was supplied by Inspiralis, Norwich, UK. Reactions were allowed to proceed for 30 min. at 37°C after which 5 μL of stop buffer (5% sarkosyl, 25% glycerol, 1X Blue Juice [Invitrogen, Carlsbad, CA]) were added. Reactions were then extracted with 20 μL chloroform/isoamylOH (24:1) and a portion of the aqueous phase was loaded into a well in a 1% agarose/Tris-borate EDTA gel. Electrophoresis was conducted at 35 VDC until the loading dye migrated about 6.5 cm down the gel. DNA in the gel was then stained in 0.5 μg/mL ethidium bromide in water for 30 min. and rinsed (3X) in H2O. The gel was illuminated with UV light, photographed, and DNA quantitated with an Alpha Imager and accompanying software (ProteinSimple, San Jose, CA). […]

≈ marks a conversion by molar mass, not a printed value.

The term MIC denotes the smallest concentration in the dilution series that meets the test's criterion for growth inhibition. A high value points to weaker potency.

Turning to `Cn1ncc2cc(-c3cnnn3C3CCN(C(=O)Nc4cc(Cl)cc(Cl)c4)CC3)ccc21` [MRL-423], the “effect of deletion of yacG on potency” value in test [1] (E. coli BW25113 (ΔtolC) ΔyacG) is given as “does not affect the potency”. The MIC in test [1] (Escherichia coli, BW25113) came out at 0.25 µg/mL (≈ 0.532 µM); in test [2], 0.25 µg/mL (≈ 0.532 µM). Besides, the cleavage complex stabilization result in test [3] is recorded as “stabilizes cleavage complex formation in a dose-dependent fashion”.
As for `Cn1ncc2cc(-c3nnnn3C3CCN(C(=O)Nc4ccc(Cl)c(Cl)c4)CC3)ccc21` [MRL-1082], the “activity against P. aeruginosa DNA gyrase” value in test [4] is reported as “active”.

Source of the values: PMC5507300, “Antibacterial small molecules targeting the conserved TOPRIM domain of DNA gyrase” (PLoS ONE, 2017).
